The values that follow are results of earlier work, collected in patent US6683094B2, “Antihistaminic piperidine derivatives and intermediates for the preparation thereof” (Aventis Pharmaceuticals Inc., priority 1998, dated 2004).

For this data set the following is noted: to two primary metabolites (fexofenadine and an inactive dealkylated metabolite).

Consider `CC(C)(C)c1ccc(C(O)CCCN2CCC(C(O)(c3ccccc3)c3ccccc3)CC2)cc1` (stereo not drawn) [Terfenadine, α-[4-(1,1-dimethylethyl)phenyl]-4-(hydroxydiphenylmethyl)-1-piperidinebutanol], for which the first pass metabolism is 99%.
